Counter-ions that a name gives are not always drawn.
Tests used:
[1] = system: vascular smooth muscle cells; assay: Inhibition of PDGF-induced vascular smooth muscle cell proliferation (WST cell counting); format: cell-based, Sprague-Dawley rat; conditions: 1, 2, 5, 10 μM; PDGF 20 ng/ml; 48 hours; OD 450 nm
Protocol: For culturing vascular smooth muscle cells, vascular smooth muscle cells were isolated from the aorta of Sprague-Dawley rat and were first cultured. Vascular smooth muscle cells were cultured in a culturing apparatus having conditions of 37° C., 5% carbon dioxide until cells are grown up in culture medium containing 20% bovine fetal serum. Cells obtained from the procedure were transferred to a fresh culture dish to culture, and the initial cells subcultured up to 4 to 7 times were used in experiments. First cultured vascular smooth muscle cells were cultured in 96-well culture dish, and when growth reached 70%, they were transferred to a medium containing 0.5% bovine fetal serum, and then cultured for 24 hours and the cells was stood at interphase status. […] The number of viable cells was measured employing WST cell counting kit (WAKO, Japan). A reagent for confirming cell proliferation was treated thereto, reaction was further performed for 4 hours, and then optical density was measured at 450 nm with ELISA reader to investigate the ability of proliferating cells. The results of the experiments were shown by taking an average from values measured in more than three separate experiments.

neointima = assay: Neointima formation after balloon dilation in rats fed high fat diet (H & E staining); format: in vivo, Sprague-Dawley rats; conditions: 4 weeks
Protocol: In order to confirm whether dimethyl fumarate inhibits the formation of neointima after balloon dilation, experiments were performed with Sprague-Dawley rats fed with food containing dimethyl fumarate. The rats were bred while maintaining conditions that the temperature of the breeding room was maintained at 22±2° C., and brightness was automatically controlled in 12 hour cycles. Rats were categorized into a normal control group, a negative control group fed with only high fat diet (20% fat, 0.05% cholesterol), and an experiment group fed with food containing 0.5% or 1% dimethyl fumarate together with high fat diet (4 rats per each group), and experiments were progressed while breeding for 4 weeks in separate cages containing one rat per cage. Balloon dilation was performed after breeding rats for 2 weeks before the balloon dilation, and breeding was performed for 2 weeks more while continuing on feeding general diet and dimethyl fumarate diet, and then their aorta were separated and the formation of neointima was confirmed with H & E (hematoxylin and eosin) staining method.

AMPK = assay: Western blot of AMPK and ACC phosphorylation in vascular smooth muscle cells; format: cell-based, Sprague-Dawley rat; conditions: 5 μM; 1, 2, 3, 6, 12 hours
Protocol: (§1) For culturing vascular smooth muscle cells, vascular smooth muscle cells were isolated from the aorta of Sprague-Dawley rat and were first cultured. Vascular smooth muscle cells were cultured in a culturing apparatus having conditions of 37° C., 5% carbon dioxide until cells are grown up in culture medium containing 20% bovine fetal serum. Cells obtained from the procedure were transferred to a fresh culture dish to culture, and the initial cells subcultured up to 4 to 7 times were used in experiments.
(§2) First cultured vascular smooth muscle cells were filled in about 80 to 90% of 60 mm tissue culture dish, and the cells were stood in a medium containing 0.5% FBS for 24 hours to render the cells to be interphase status. […]
(§3) Whole proteins were separated from vascular smooth muscle cells of each group by employing RIPA buffer solution (50 mM Tris-HCl, 150 mM NaCl, 5 mM EDTA, 1% NP-40, 1 mM PMSF, 1 mM DTT, 1 mg/ml protease inhibitor). Separated proteins of each sample were quantitatively analyzed, 25 mg of proteins were mixed with sample buffer solution, the mixture was boiled for 5 minutes and then cooled, electrophoresis was performed for the resulting product in sodium dodecyl sulfate polyacrylamide gel to separate depending on size, then the product was transferred to a PVDF membrane, and then reacted with pAMPK or pACC antibody to confirm phosphorylation thereof. […]

p53 and p21 = assay: Western blot of p53 and p21 expression in vascular smooth muscle cells; format: cell-based, Sprague-Dawley rat; conditions: 5 μM; 1, 2, 3, 6, 12 hours
Protocol: as §1, §2
as §3, with “mM Tris HCl,” for “mM Tris-HCl,”, “25 μg” for “25 mg”, “with p53” for “with pAMPK”, “or p21” for “or pACC”, “confirm the expression” for “confirm phosphorylation”

pRb and CDK = assay: Western blot of Rb phosphorylation and CDK expression in vascular smooth muscle cells with PDGF; format: cell-based, Sprague-Dawley rat
Protocol: as §1
First cultured vascular smooth muscle cells were filled in about 80 to 90% of 60 mm tissue culture dish, and the cells were stood in a medium containing 0.5% FBS for 24 hours to render the cells to be interphase status. The group not treated with dimethyl fumarate was defined as a control, and experimental groups were divided into 3 groups treated with 5 μM dimethyl fumarate for 6, 12 and 24 hours, respectively, with or without PDGF. […] Separated proteins of each sample were quantitatively analyzed, 25 μg of proteins were mixed with sample buffer solution, the mixture was boiled for 5 minutes and then cooled, electrophoresis was performed for the resulting product in sodium dodecyl sulfate polyacrylamide gel to separate depending on size, then the product was transferred to a PVDF membrane, and then reacted with an antibody against pRb or Cyclin. […]

[2] = system: vascular smooth muscle cells; assay: Cell cycle analysis by FACS (PI staining) of vascular smooth muscle cells; format: cell-based, Sprague-Dawley rat; conditions: 5 μM pretreated 2 hours; growth factor and insulin 24 hours; stimulated without drug 8.7%
Protocol: For culturing vascular smooth muscle cells, vascular smooth muscle cells were isolated from the aorta of Sprague-Dawley rat and were first cultured. Vascular smooth muscle cells were cultured in a culturing apparatus having conditions of 37° C., 5% carbon dioxide until cells are grown up in culture medium containing 20% bovine fetal serum. Cells obtained from the procedure were transferred to a fresh culture dish to culture, and the initial cells subcultured up to 4 to 7 times were used in experiments. Vascular smooth muscle cells were analyzed for cell cycle employing FACS in order to confirm the effect of dimethyl fumarate on cell cycle. 5 μM dimethyl fumarate were pretreated for 2 hours in the vascular smooth muscle cells cultured in a medium containing 0.5% bovine fetal serum for 24 hours. Cells were treated with a growth factor and insulin to induce cells into replication phase, and reaction was performed for 24 hours. Then cells were collected and immobilized, and then their nucleuses were stained with propidium iodide (PI), and cell cycle was analyzed by employing FACS. Cell cycle was indicated as % by measuring 10,000 cells per each sample.

SMILES: COC(=O)/C=C/C(=O)OC [dimethyl fumarate]
- cell proliferation increased by platelet derived growth factor [1]: inhibited as the concentration of dimethyl fumarate was increased
- formation of neointima after balloon dilation (neointima; food containing 0.5% dimethyl fumarate with high fat diet): certainly decreased
- formation of neointima after balloon dilation (neointima; food containing 1% dimethyl fumarate with high fat diet): certainly decreased
- activity (phosphorylation) of AMPK (AMPK): initially increased
- phosphorylation of ACC (AMPK): continuously increased
- expression of p21 (p53 and p21): increased
- expression of p53 (p53 and p21): increased
- expression of CDK (pRb and CDK; 5 μM pretreated 2 hours, then PDGF): more inhibited
- phosphorylation of Rb promoted by a growth factor or CDK (pRb and CDK; 5 μM, 6, 12 and 24 hours, with or without PDGF): inhibits
- cells in replication phase status [2]: 3.4%

From patent US20120232142A1, “NOVEL USE OF DIMETHYLFUMARATE” (KYUNGPOOK NATIONAL UNIVERSITY INDUSTRY ACADEMIC COOPERATION …, priority 2007, published 2012)
